Data: patent US11000555B2, “Method for preparing a limax compound and therapeutic use thereof” (GUANGXI JIUFU BIOTECHNOLOGY CO., LTD, priority 2017, dated 2021)
Marks after values point to notes of the source that are not given here.

Assays:
[1] = tested on: mice; experiment: Morphine-induced hyperexcitability test of mice; assay type: in vivo, Kunming mice
[2] = tested on: rats; experiment: Physical dependence test: induced withdrawal test for the rats; details: rat, in vivo
Procedure: The compound group was administered (ig) twice a day according to the dose increasing principle, at daily doses of 0.5, 1.0, 1.5, 2.0, 2.5, 3.0 g/kg. The dose was increased every day from 0.5 g/kg to 3.0 g/kg on day 6 which was adopted the same on day 7. The negative control group was given (ig) the same volume of vegetable oil per day at the same time and for the same times as the compound group. On day 8, the rats in each group were given naloxone (5 mg/kg, ip) to induce withdrawal, and the withdrawal status of the rats within 30 min and the weight change one hour before and after the inducement were observed. The evaluation criteria of withdrawal symptoms of rats were established by referring to the Tomoji Yanagita evaluation criteria and our pre-experimental results (see Appendix Table 17). The withdrawal scores and weight loss values of each group of rats were statistically processed. Weight loss value=weight before inducement−weight after inducement.

CC1(C)O[C@H]2CC[C@@]3(C)[C@@H]([C@@H](O)[C@H](O)[C@@H]3[C@@](C)(O)CC[C@@H]3OC(C)(C)[C@H]4CC[C@]3(C)O4)[C@]2(C)CC[C@H]1O [the compound, limaxol A]
Effect on excitability induced by morphine ([1]; 0.4, 0.8 g/kg, ig): inhibit the increase of excitability induced by morphine and amphetamine | Number of activities, morphine-induced excitability ([1]; After administration, high dose 0.8 g/kg ig, morphine 10 mg/kg): 112.7 ± 23.04**^Δ▴▴ Times per min | Number of activities, morphine-induced excitability ([1]; After administration, low dose 0.4 g/kg ig, morphine 10 mg/kg): 102.0 ± 46.29**^Δ▴ Times per min | Number of activities, morphine-induced excitability ([1]; Before administration, high dose group): 185.4 ± 36.93 Times per min | Number of activities, morphine-induced excitability ([1]; Before administration, low dose group): 191.5 ± 35.53 Times per min | Withdrawal symptoms after administration of the compound, rats [2]: no obvious withdrawal symptoms
